Reference: patent publication US10722519B2, “Aerosol fluoroquinolone formulations for improved pharmacokinetics” (priority 2008, dated 2020)
Where two headings read alike, the source gives them in different places.

How the values were obtained:
[1] = in vivo; conditions: Sprague-Dawley, rat, 10 mg/kg
[2] = in vivo; conditions: male, Sprague-Dawley, rat, in vivo, 10 mg/kg
Procedure: This example relates to aerosol and intravenous administration of fluoroquinolones in saline. A rat pharmacokinetic model was used to compare intravenous and pulmonary administration of fluoroquinolones. […] Doses were administered via the lateral tail vein, or to the lung just above the tracheal bifurcation using a micro-spray aerosol device (Penn Century, Philadelphia, Pa.).
Approximately 0.3 ml blood samples were taken from 2-6 rats at each timepoint via an indwelling jugular vein cannula, and collected in lithium heparin tubes. Bronchial alveolar lavage (BAL) and lung tissue were collected following euthanasia. […] Sample concentrations were determined against a standard curve.

[3] = tested on: P. aeruginosa; conditions: simulated ELF
[4] = rat, 10 mg/kg
[5] = Aerosol and IV levofloxacin in saline in normal healthy volunteers and CF subjects (serum, sputum, deconvolution); conditions: for Mean projected Cmax in the ELF: CF patients, ELF volume 25 ml; for AUC / Cmax / half-life / clearance: human, in vivo; for clearance: Total levofloxacin clearance, serum
Procedure: Safety, tolerability, and pharmacokinetics (serum, sputum, and urinary excretion) data were collected after each dose.
A weight of 1/y-observed was applied in the regression. Goodness of fit was assessed by the minimized objective function and inspection of weighted residual plots. […] Briefly, this analysis compares the appearance and elimination of drug following aerosol and intravenous doses to determine the amount of drug remaining in the lung (absorption compartment) over time. To estimate concentrations of drug in lung, amounts were divided by estimates of the epithelial lung fluid (ELF) volume (25 ml) for each subject. Noncompartmental pharmacokinetic analysis was subsequently applied to these projected concentrations of drug in the lung to determine values for AUC.
The area under the sputum concentration vs. time curve was estimated using the linear trapezoidal rule.

C[C@H]1COc2c(N3CCN(C)CC3)c(F)cc3c(=O)c(C(=O)O)cn1c23 [Levofloxacin, levofloxacin]
MRT ([1]; inhaled or intranasal): 42 min
half-life ([1]; inhaled or intranasal): 30 min
MRT ([1]; iv): 42 min
half-life ([1]; iv): 30 min
F, % from Lung vs IV [2]: 97%
MAT [2]: 0 h
AUC ([2]; inhaled or intranasal): 3000 ng·h/mL
AUC(0-inf) ([2]; inhaled or intranasal): 3700 ng·h/mL
MRT ([2]; inhaled or intranasal): 42 min
half-life ([2]; inhaled or intranasal): 30 min
AUC ([2]; iv): 1600 ng·h/mL
AUC(0-inf) ([2]; iv): 3800 ng·h/mL
MRT ([2]; iv): 42 min
half-life ([2]; iv): 30 min
24 h AUC ([3]; 20 mg BID): 700 mg·h/L
Cmax ([3]; 20 mg BID): 500 mg/L
24 h AUC ([3]; 40 mg BID): 1,400 h · mg/L
Cmax ([3]; 40 mg BID): 1,000 mg/L
24 h AUC ([3]; 80 mg BID): 2,800 h · mg/L
Cmax ([3]; 80 mg BID): 2,000 mg/L
24 h AUC ([3]; 120 mg BID): 4,200 h · mg/L
Cmax ([3]; 120 mg BID): 3,000 mg/L
Plasma MAT ([4]; Sprague-Dawley, in vivo): 0.01 h
Plasma CL/F ([4]; IV, mean (+/- SD)): 2.81 (±0.54) L/hr/kg
Mean projected Cmax in the ELF ([5]; high dose (RDD 40 mg)): > 1000 µg/mL
Mean projected Cmax in the ELF ([5]; low dose (RDD 20 mg)): exceeded 500 μg/ml
time for which 50% of the lung dose remains in the lung ([5]; CF subjects, aerosol in saline, serum deconvolution): at least 0.5 hours
peak sputum concentrations higher than 750 mg oral dose ([5]; aerosol doses as low as 20 mg): 10 fold
AUC ([5]; 20 mg): 67100 ng·h/mL
Cmax ([5]; 20 mg): 86.2 µg/mL
half-life ([5]; 20 mg): 54 min
AUC ([5]; 40 mg): 171000 ng·h/mL
Cmax ([5]; 40 mg): 212 µg/mL
half-life ([5]; 40 mg): 78 min
clearance ([5]; 50 mg, CF subjects): 235 mL/min
clearance ([5]; 50 mg, NHV subjects): 287 mL/min
AUC ([5]; iv, 50 mg): 2500 ng·h/mL
Cmax ([5]; iv, 50 mg): 0.8 µg/mL
AUC ([5]; po, 750 mg): 93400 ng·h/mL
Cmax ([5]; po, 750 mg): 8.7 µg/mL
